Assay results taken from US4540692A, “Anti-inflammatory N-(1-oxo-2,4,6-cycloheptatrienyl)2H-1,2-benzothiazine-3-carboxamide 1,1-dioxide derivatives, compositions, and method of use” (Fujisawa Pharmaceutical Co., Ltd., priority 1983, dated 1985).

System: carrageenin edema
Experiment: Carrageenin edema test
Type: in vivo, Sprague-Dawley rats
Conditions: rat hind paw, 10 mg/kg oral, 60 minutes prior to carrageenin (0.1 ml, 1%); edema weight 3 hours after injection
Method: Five Sprague-Dawley rats were fasted for 24 hours and submitted to the study. First, 0.1 ml of carrageenin (1%) was subcutaneously injected into the paw of the right hind limb and after 3 hours the rat was sacrificed. The untreated limb and the edematous limb were respectively incised off at the junction of the tibia and weighed. The difference in weight between the edematous limb and the untreated limb was taken as the weight of the edema.
The test compound was orally administered 60 minutes prior to the administration of carrageenin and the swelling in the treated limb was compared with that in the control limb. The test compound was administered in a dose of 10 mg/kg.

Structure (SMILES): CN1C(C(=O)Nc2cccccc2=O)=C(O)c2ccccc2S1(=O)=O [Example 1, 4-hydroxy-2-methyl-N-(1-oxo-2,4,6-cycloheptatrien-2-yl)-2H-1,2-benzothiazine-3-carboxamide 1,1-dioxide]
- % Inhibition of carrageenin edema: 51.4%
